Measured values from publication PMC11984388, “A brain-accessible peptide modulates stroke inflammatory response and neurotoxicity by targeting BDNF-receptor TrkB-T1 specific interactome” (Theranostics, 2025).

Test: Infarct volume after photothrombotic permanent ischemia
Assay type: in vivo, mice
Conditions: 24 h; for Decrease of infarct volume: versus TMyc, 3 nmol/g i.v. 1 h after damage
Protocol: Permanent focal ischemia was induced in cerebral cortex of adult male and female mice by microvascular photothrombosis as described with modifications. Brain injury involves vascular endothelium damage and platelet activation, followed by microvascular thrombotic occlusion of a particular region selected for illumination using a stereotaxic frame. Coordinates were +0.2 AP, +2 ML relative to Bregma and damaged area corresponded to primary motor and somatosensory cortex. For neuroprotection, a single dose (3 nmol/g) of peptides TMyc or TT1Ct (see below) was administered 1 h after damage initiation. Further details of the procedures, including measurement of infarct volume and evaluation of motor coordination and balance, are detailed as Supplementary material.
Antibodies, chemica ls and recombinant proteins, cell-penetrating peptides , prime rs , commercial as says , experimental models, recombinant DNAs and software ar e des cribe d in the Table S1, included as Supplementary material.
Animal procedures were performed follow ing Europea n Union Directive 2010/63/ EU and were approved by the CS I C and Comunidad de Ma drid (Ref PROEX 276.6/20) ethics committees.
Hous ing facilities were approved by Comunidad de Ma drid (#ES 280790000188) and conform to official regulations. Animals had sta ndard health and immune sta tus and were looked af ter by profes sional caretake rs daily. Ma l e and female mice were kept in groups of up to five in sta ndard IVC cage s while 1–2 pregnant rats occupied sta ndard cage s, always containing bedding and nes ting materials. Animals were under controlled lighting conditions (12 h light cycles ), relative humidity and temperature. Irradiated food and water were provided ad libitum.
We trie d to minimiz e animal suffering and reduce the number of sa cri f i ced animals .
Mi c e model of isc he mia by microv ascular photothr ombosis to study in vivo excitotoxicity This model of permanent focal isc hemia mimics embolic or thrombotic occlus ion of sm a ll ar ter ie s, which is freque ntly found in human stroke, and caus es a focal brain damage with histological and MR I corre lations to human patterns. The procedure was as previously des cribe d with some modific ations . Ma l e and female Ba lb/c OlaHsd mice (23–31 g; 10–16 weeks of age; Envigo Rms , Spain S.L.) were allowed to acc limatize to our facilities for at least 1 week af ter delivery, before isc hemic induction. They were kept with the sa m e cage mates, and daily examined to chec k their health sta tus . Mi c e were anes thetized with isoflurane (5% for induction, 2% for maintenance in oxygen; Abbot Labora tories , Ma drid, Spain) and then placed in a ste reotaxic frame (Naris hige Group, Tokyo, Ja pan). Body temperature was maintained at 36–37°C using a se l f-regulating heating blanket (Cibertec, Ma drid, Spain). A midline sc al p incision was made, the skull was expos ed, and both Bregma and Lambda points were identifie d.
A cold- light (Sc hott KL 2500 LCD; Schott Glas s, Ma inz, Germany) with a fibre optic bundle of 1.5 mm in diameter was centred using a micromanipula tor on the right side , at 0.2 mm anterior and 2.0 mm lateral (+0.2 AP, +2 ML ) relative to Bregma. […] Five minutes later, the brain was illumina ted (600 lms, 3,000 K) through the intact […]
skull for 10 min. Br ain injury encompas se s damage to vas cular endothelium, platelet activation, and subs equent microvascula r thrombotic occlus ion of the irradiate d region. The ar eas underneath this ste reotaxic position that result irradiate d ar e the prima ry motor cortex and the prima ry soma tos ens ory cortex (hindlimb and forelimb). Once completed surgery, the incision was sutured, and mice were allowed to recover. […]

## Ac-YGRKKRRQRRRPPFVLFHKIPLDG-NH2 [TT1Ct]
Female mice
  Decrease of infarct volume: 42%
Male + female mice, 3 nmol/g i.v. 1 h after damage induction, TTC, relative to hemisphere volume, mean ± SEM, n = 19, n = 20
  Infarct volume (%): 10 ± 1%
Male mice
  Decrease of infarct volume: 45%
